± gives the expanded uncertainty stated by the source.
Assay: xn = mol fraction of the nth substance listed
Conditions: 101 kPa, Liquid

CCN(CC)CC [triethylamine] + c1ccccc1
mass density [kg/m3]
Conditions | x2 = 0 | x2 = 0.1145 | x2 = 0.2043 | x2 = 0.3005 | x2 = 0.4005 | x2 = 0.5023 | x2 = 0.6037 | x2 = 0.7035 | x2 = 0.8079 | x2 = 0.9069
278.15 K | – | – | – | 769.2 ± 2.4 | 780.6 ± 2.4 | 793.6 ± 2.5 | 808.1 ± 2.5 | 824.2 ± 2.6 | 843.9 ± 2.7 | 866.2 ± 2.7
283.15 K | – | 747.4 ± 2.2 | 755.5 ± 2.2 | 765.4 ± 2.2 | 776.9 ± 2.3 | 790 ± 2.3 | 804.6 ± 2.4 | 821 ± 2.4 | 841 ± 2.5 | 863.5 ± 2.6
288.15 K | – | 743.3 ± 2 | 751.5 ± 2 | 761.4 ± 2.1 | 772.9 ± 2.1 | 786 ± 2.2 | 800.7 ± 2.2 | 817.2 ± 2.3 | 837.4 ± 2.4 | 859.9 ± 2.4
293.15 K | – | 738.4 ± 1.9 | 746.8 ± 1.9 | 756.7 ± 1.9 | 768.2 ± 2 | 781.4 ± 2 | 796.1 ± 2.1 | 812.7 ± 2.1 | 833.1 ± 2.2 | 855.6 ± 2.3
298.15 K | 723.4 ± 1.9 | 733.4 ± 2 | 741.8 ± 2 | 751.7 ± 2 | 763.1 ± 2.1 | 776.1 ± 2.1 | 790.7 ± 2.2 | 807.2 ± 2.3 | 827.4 ± 2.3 | 849.6 ± 2.4
303.15 K | 717.9 ± 2.1 | 728.2 ± 2.1 | 737 ± 2.1 | 747.1 ± 2.2 | 758.7 ± 2.2 | 772 ± 2.3 | 786.8 ± 2.3 | 803.6 ± 2.4 | 824.2 ± 2.5 | 846.8 ± 2.5
308.15 K | 712.9 ± 2.2 | 723.4 ± 2.2 | 732.3 ± 2.2 | 742.4 ± 2.3 | 754 ± 2.3 | 767.3 ± 2.4 | 782.1 ± 2.4 | 799 ± 2.5 | 819.6 ± 2.6 | 842.1 ± 2.7
313.15 K | 708.3 ± 2.3 | 718.9 ± 2.3 | 727.9 ± 2.4 | 738.1 ± 2.4 | 749.7 ± 2.5 | 762.9 ± 2.5 | 777.8 ± 2.6 | 794.7 ± 2.6 | 815.4 ± 2.7 | 837.8 ± 2.8
318.15 K | 701.6 ± 2.4 | 712.6 ± 2.4 | 721.7 ± 2.5 | 732.1 ± 2.5 | 743.9 ± 2.6 | 757.2 ± 2.6 | 772.3 ± 2.7 | 789.5 ± 2.7 | 810.5 ± 2.8 | 833.1 ± 2.9
